US7015323B2, “Thiocarbamate inhibitors of alpha-4 integrins” (Genentech, Inc., priority 2003, dated 2006)

Test: Clearance and half life: pharmacokinetics after IV or PO dosing, plasma measured by LC/MS/MS
Format: in vivo
Conditions: rat; for clearance: clearance from plasma levels (LC/MS/MS, WinNonlin), PEG 400 formulation, route for the table values not stated; for half-life: half life from plasma levels (LC/MS/MS, WinNonlin), route not stated
Protocol: Jugular Vein Cannulation—Animals are anesthetized via IP injection using Ketamine/Xylazine/saline solution (@ 0.25 mL/kg). Animals are weighed prior to dosing of anesthetic to determine proper dosage. Sterile instruments and aseptic technique are used throughout surgery. This includes wearing a mask, clean lab coat or scrubs and sterile gloves. The ventral and dorsal neck areas are shaved and prepped with betadine and alcohol. A small skin incision is made over the jugular vein. Using blunt dissection techniques, free the intended vessel from surrounding tissue and thread two sutures under the vein. Tie the cranial suture, nick the vessel, insert the catheter, and use the distal suture to secure the catheter. Dissect a subcutaneous passage between the catheter insertion point and the intrascapular space; make a small exit hole at the nape of the neck. Then, using hemastats, pull the cannula through the passage to the dorsal neck area. Confirm that the catheter is still properly placed, flush with appropriate heparin/saline solution, and knot the distal end of the cannula. Place a suture tie around the knot, coil the cannula under the skin and close the dorsal incision, leaving the “tie” slightly exposed for ease of externalizing the catheter. Close the ventral incision. The animal should be recovered on a circulating heating blanket or equivalent and returned to its room when it's able to right itself.
Compounds are formulated with polyethylene glycol 400 (PEG) at 30% (IV) or 60% (PO).
Intravenous (IV) dosing is accomplished with a bolus injection into a lateral tail vein. Animals are restrained using a rat restrainer to minimize mis-dosings and to reduce animal stress. Individual doses are calculated based on body weights taken the morning of the dose. Oral (PO) dosing is accomplished by oral gavage using a 3½ inch stainless steel animal feeding tube. Animals are restrained by grasping gently with our hands to reduce animal stress. Individual doses are calculated based on body weights taken the morning of the dose.
Blood (approximately 0.2 mL) is collected from an jugular cannula. For occasions when the jugular cannula fails, blood is removed from the remaining lateral tail vein. The whole blood was placed into Microtainer® tubes containing K2EDTA anticoagulant. Samples are inverted several times to ensure proper mixing with anticoagulant and are stored on ice until centrifugation. Samples are centrifuged at 10,000×g for 5 minutes and plasma is transferred to 1.5 mL microcentrifuge tube. […]
All plasma samples are measured by LC/MS/MS. All pharmacokinetic parameters, clearance (CL), half life (t½), area under curve (AUC) and maximum conc (Cmax) are determined using WinNonin (version 3.2).

Row | clearance [L/h/kg] | half-life [min] | SMILES
1 | 1.38 | 61 | O=C(N[C@@H](Cc1ccc(OC(=S)N2CCOCC2)cc1)C(=O)O)c1ccccc1Cl [compound 1]
2 | 3 | 6 | O=C(N[C@@H](Cc1ccc(OC(=O)N2CCOCC2)cc1)C(=O)O)c1ccccc1Cl [referencecarbamate]
